From patent publication US20070232572A1, “Chemical derivatives as antitelomerase agents which bind specifically to the G-quadruplex DNA structures and their application as a specific anticancer agent” (priority 2003, published 2007) come the findings set out here.

For test [1], the system named is any double-stranded oligonucleotide. Put plainly: Test of selectivity No. 2: dissociation constant of the complex with a double-stranded oligonucleotide, by fluorescence. It counts as binding. The note with it: DNA double strand versus oligonucleotide G4. How it is done:
Test of selectivity No. 2: Measurement of the dissociation constant, expressed in μM, of the complex between a product of the invention and any double-stranded oligonucleotide, by a fluorescence method according to the experimental protocol is described below.
The titrations are carried out according to a protocol identical to that used for the titrations of the preceding test.

Test [2] addresses oligonucleotide capable of forming a monomeric G-quadruplex structure. Put plainly: Test of affinity No. 2: dissociation constant of the complex with a monomeric G-quadruplex oligonucleotide, by fluorescence. It counts as binding. As to conditions: read-out: Affinity/selectivity G4 Test 2 (Kd by fluorescence) Kd. How it is done:
Test of affinity No. 2: Measurement of the dissociation constant, expressed in μM, of the complex between a product of the invention and an oligonucleotide, capable of forming a monomeric G-guadruplex structure, by a fluorescence method according to the experimental protocol is described below.
The titrations are carried out at 20° C. in a quartz cuvette having a useful volume of 3 ml and a cross section of 10×10 mm, placed in the thermostated compartment of the Spex Fluorolog 3 fluorimeter (Jobin-Yvon). […] To a 0.1 μM solution of compound are added increasing concentrations of nucleic acids. After an equilibration time of 3 minutes, a fluorescence emission spectrum is recorded for each point, using slits of 5 nm and an excitation wavelength of 340 nm. Each aliquot represents an additional volume of 3 microliters. The effects of dilution are corrected at the end of the experiment after integrating the emission signal. The curves representing the emission intensity as a function of the nucleic acid concentration are then analyzed and fitted with the Kaleidagraph 3.52 software for Macintosh.

Test [3] has as its system human telomerase (extract of A549 cells), oligonucleotide TSG4. Put plainly: Antitelomerase activity by the TRAP-G4 assay. Type of test: biochemical. As to conditions: formation of the TSG4-CXext band; read-out: Inhibition of telomerase IC50 (IC50 TRAP-G4). How it is done: The extract is stored at -80° C.
The test system of test [4] is any oligonucleotide (non-G-quadruplex control sequence) with its complementary strand. Briefly: Test of selectivity No. 1 (alpha screen): inhibition of pairing of any oligonucleotide with its complementary strand, luminescence. It counts as binding. As to conditions: control oligonucleotide pairing versus G4 oligonucleotide pairing. From the text:
The test used is the same as that described above. Only the oligonucleotides are different, the telomeric strand being replaced by an oligonucleotide having the following sequence: G-GTT-TAA-AAT-AAT-TGA-GGC-TTA-CCG-TTA-CCG-TTA-CGG biotinylated at the 5′ end. The complementary strand has the sequence: 5′-GGT-TTA-AAA-AAT-TTG-CGG-TAA-CGG-TAA-CGG-TAA-GCC-T labeled with digoxigenin at the 5′ end. If the test product has affinity for the biotinylated DNA sequence, the pairing of the complementary strand will be prevented and the signal obtained will be minimal. In the absence of product or if the latter has no affinity for this DNA, the pairing will occur and the signal will be maximum.

Test [5] has as its system oligonucleotide capable of forming a G-quadruplex structure (G-rich strand, repetitive units of human telomeric DNA). Put plainly: Test of affinity No. 1 (alpha screen): inhibition of pairing of a G-quadruplex-forming oligonucleotide with its complementary strand, luminescence. The note with it: 50 mM TRIS-HCl pH 7.4, 100 mM KCl, 0.1% BSA; telomeric strand vs complementary strand; read-out: Affinity/selectivity G4 Test 1 (alpha screen) Affinity IC50. Type of test: binding. The source says:
The principle of this test uses the activation of “acceptor” beads by an oxygen singlet emitted by “donor” beads excited by laser when the “acceptor” and “donor” beads are in proximity. This test was developed by Packard Bioscience under the name Amplified Luminescent Proximity Homogeneous Assay or ALPHA screen.
The “donor” beads are conjugated with streptavidin and the acceptor beads with an anti-digoxigenin antibody (catalog reference 6760604). A DNA strand, in this case the telomeric strand, is coupled at its 5′ end to biotin so as to be able to bind to the “donor” beads, while the complementary strand is coupled to digoxigenin so as to be able to bind to the “acceptor” beads. During the pairing of the telomeric strand with its complementary strand, the beads are placed in proximity and a luminescence signal is then emitted at a wavelength of 520-620 nm.
The oligonucleotides used in the experiments were synthesized by Perkin Elmer Life Sciences (Finland). […] The complementary strand has the sequence GGT-TTA-AAA-AAT-TTG-CCC-TAA-CCC-TAA-CCC-TAA-CCC-T. The biotin or the digoxigenin are added to the 5′ end of the oligonucleotides.
The experiments are carried out in 50 mM TRIS-HCl buffer pH 7.4 containing 100 mM KCl and 0.1% BSA.
The measurements are carried out with an Alphaquest microplate analyzer (Fusion α) from Packard Biosciences.
The experiments are carried out in 96-well plates (½ wells). An oligonucleotide stock solution at the concentration of 25 nM in the buffer described above is prepared. 10 μl of this solution are distributed into the wells. 10 μl of the test product at different concentrations, prepared in the same buffer containing 0.6% DMSO, are then added. 10 μl of buffer+0.6% DMSO are distributed into the control wells. The samples are left to incubate for 15 minutes at room temperature. After this incubation time, 10 μl of the complementary strand at the concentration of 25 nM and 20 μl of a solution containing 2 types of bead diluted beforehand to 50 mg/ml are added to the wells. The plates are incubated at room temperature for 2 hours before reading. […]

The test system of test [6] is G-quadruplex oligonucleotide GGGTTAGGGTTAGGGTTAGGG (3.5 repeats of the human telomeric unit), FAM+DABCYL. Briefly: Test of affinity No. 3: stabilization of the G-quadruplexes, fluorescence Tm. It counts as binding. As to conditions: test product 1 μM, oligonucleotide 0.2 μM, 0.1 M LiCl, 10 mM cacodylate pH 7.6; reference Tm 44° C. The source says:
Test of affinity No. 3: Measurement of the stabilization of the G-guadruplexes Tm, expressed in ° C., by a method using the formation of a complex with fluorescein of which the experimental protocol is described below.
All the oligonucleotides, modified or otherwise, were synthesized by Eurogentec S A, Seraing, Belgium. The oligonucleotide FAM+DABCYL has the catalog reference OL-0371-0802. It has the sequence: […] corresponding to 3.5 repeats of the human telomeric unit (strand rich in G). The fluorescein is attached to the 5′ end, the DABCYL to the 3′ end, by the chemical arms described by Eurogentec. An oligonucleotide FAM+TAMRA may also be used. The concentration of the samples is checked by spectrophotometry, by recording the absorbance spectrum between 220 and 700 nm and using the molar extinction coefficient provided by the supplier.
All the experiments were carried out in a 10 mM sodium cacodylate buffer pH 7.6 containing 0.1 M lithium chloride (or sodium chloride). The absence of fluorescent contamination in the buffer was checked beforehand. The fluorescent oligonucleotide is added at the final concentration of 0.2 μM.
All the measurements of fluorescence were carried out on a Spex Fluorolog DM1B or Fluoromax 3 apparatus, using an excitation line width of 1.8 nm and an emission line width of 4.5 or 5 nm. The samples are placed in a microquartz cuvette of 0.2×1 cm. […] The oligonucleotide alone was analyzed at 20, 30, 40, 50, 60, 70 and 80° C. The emission spectra are recorded using an excitation wavelength of 470 nm. The excitation spectra are recorded using either 515 or 588 nm as emission wavelength. […] A high extinction (80-90%) of the fluorescence of fluorescein at room temperature is observed, in agreement with an intramolecular folding of the oligonucleotide at 20° C. in the form of a G-quadruplex, which induces juxtaposition of its 5′ and 3′ ends which are respectively linked to fluorescein and to DABCYL. This juxtaposition causes an already-described phenomenon of extinction of fluorescence which is used for “Molecular Beacons”. […]

Setting [7] is: 20° C., sodium cacodylate pH 7.2, 100 mM potassium chloride (K+).

Where two headings read alike, the source gives them in different places. Bounds are passed on as bounds.

On to `C[n+]1cccc2cc(NC(=O)c3cccc(C(=O)Nc4ccc5c(ccc[n+]5C)c4)n3)ccc21.[I-].[I-]` [Example 1, bis[(1-methylquinolinio-6-yl)amido]-2,6-pyridinedicarboxylic acid diiodide], for which the “Affinity/selectivity G4 Test 2 (Kd by fluorescence) Selectivity factor” value in test [1] was >>100. Also, the Kd in test [2] (setting [7]) is 7 nM. Also, the IC50 came to 450 nM in test [3] and 160 nM in test [5]. The “Affinity/selectivity G4 Test 1 (alpha screen) Selectivity factor” value in test [4] is >20. Also, in test [6], the “Affinity G4 Test 3 Delta Tm” value turned out to be 26 °C.
With `C[n+]1cccc2cc(NC(=O)c3cccc(C(=O)Nc4cc5ccccc5[n+](C)c4)n3)ccc21.[I-].[I-]` [Example 9, 2-[(1-methylquinolinio-6-yl)amido]-6-[(1-methylquinolinio-3-yl)amido]-2,6-pyridinedicarboxylic acid iodide], the “Affinity/selectivity G4 Test 2 (Kd by fluorescence) Selectivity factor” value in test [1] was >1000. The Kd in test [2] (setting [7]) is 0.7 nM; in test [2] (Na+) it was 3.2 nM. Besides, the values for the IC50 in test [3] and in test [5] were 300 nM and 60 nM, respectively. In test [4], the “Affinity/selectivity G4 Test 1 (alpha screen) Selectivity factor” value is recorded as >50. Besides, the “Affinity G4 Test 3 Delta Tm” value in test [6] turned out to be 21 °C.
On to `C[n+]1cccc2cc(NC(=O)c3cccc(C(=O)NCC[N+]4(C)CCCCC4)n3)ccc21.[I-].[I-]` [Example 12, 2-[(1-methylquinolinio-6-yl)amido]-6-[2(-1-methylpiperidinio-1-yl)ethylamido]-2,6-pyridinedicarboxylic acid diiodide], for which the IC50 is 1500 nM in test [3] and 1060 nM in test [5]. In test [4], the “Affinity/selectivity G4 Test 1 (alpha screen) Selectivity factor” value is >3. Moreover, the “Affinity G4 Test 3 Delta Tm” value in test [6] came out at 12.1 °C.
